PubChem BioAssay (NCI)
Values joined by “and” are separate entries in the source; they are usually repeats but may differ in a detail not shown here. Identical values can stand only once.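 Following 48 hours of exposure in 96-well plates, responses at five concentrations were used to interpolate endpoints linearly. GI50: concentration for 50% inhibition of growth. Definition used: TGI = concentration required for complete inhibition of growth.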

Tests used:
Assay in all cases: NCI tumour cell line growth inhibition, 48 h
UO-31 renal = system: UO-31 renal
EKVX NSCLC = system: EKVX NSCLC
DMS 273 small cell lung = system: DMS 273 small cell lung
LOX IMVI melanoma = system: LOX IMVI melanoma
A549 NSCLC = system: A549 NSCLC
HT29 colon = system: HT29 colon
SNB-78 CNS = system: SNB-78 CNS
KM20L2 colon = system: KM20L2 colon
NCI-H522 lung = system: NCI-H522 lung
M14 melanoma = system: M14 melanoma
T-47D breast = system: T-47D breast
HOP-18 NSCLC = system: HOP-18 NSCLC

Compound | TGI (UO-31 renal) [µM] | TGI (EKVX NSCLC) [µM] | TGI (DMS 273 small cell lung) [µM] | TGI (LOX IMVI melanoma) [µM] | TGI (A549 NSCLC) [µM] | TGI (HT29 colon) [µM] | TGI (SNB-78 CNS) [µM] | TGI (KM20L2 colon) [µM] | TGI (NCI-H522 lung) [µM] | TGI (M14 melanoma) [µM] | GI50 (UO-31 renal) [µM] | GI50 (EKVX NSCLC) | GI50 (LOX IMVI melanoma) [µM] | GI50 (T-47D breast) | TGI (T-47D breast) [µM] | GI50 (A549 NSCLC) [µM] | GI50 (HT29 colon) [µM] | GI50 (NCI-H522 lung) [µM] | GI50 (M14 melanoma) [µM] | TGI (HOP-18 NSCLC) [µM]
Cc1ccc(N2C(=O)/C(=C3\Sc4c(nc(C)[nH]c4=O)N3c3ccccc3)SC2=S)cc1 | 92.1 | > 100 | > 100 | 70.7 | > 100 | > 100 | > 100 | > 100 | > 100 | > 100 | – | – | – | – | – | – | – | – | – | –
COc1ccc(O)c2c1C(=O)CCCC2=O | > 100 | > 100 | > 100 | > 100 | > 100 | > 100 | > 100 | > 100 | > 100 | > 100 | – | – | – | – | – | – | – | – | – | –
CCN(CC)CCCNC(=O)Cc1ccccc1Nc1c(Cl)cccc1Cl | 23.8 | 28.2 | 28.1 | 25.6 | 36.2 | 17.6 | 32.8 | 12.4 | – | 7.88 | – | – | – | – | – | – | – | – | – | –
CC(=O)/C(C)=N/N/C(N)=N\S(=O)(=O)c1cc(C(=O)Nc2ccccc2)c(Cl)cc1SCc1ccccc1 | > 100 | 39.5 | – | > 100 | > 100 | > 100 | – | – | > 100 | 3.95 | 29.6 | 6.62 µM | 4.83 | > 100 µM | > 100 | 30.5 | 61.6 | 64.7 | 1.08 | –
Cn1c(=O)c2[nH]c(COc3ccc(C(C)(C)C)cc3)nc2n(C)c1=O | 89.5 | > 100 | – | > 100 | > 100 | > 100 | – | – | 88 | 41.4 | 13.6 | 3.34 µM | 19.9 | 11.9 µM | > 100 | 18.9 | 29.3 | 19.6 | 15 | –
COc1cccc(C2C(C(=O)Nc3cc(=O)n(C)c(=O)n3C)=C(C)NC(C)=C2C(=O)Nc2cc(=O)n(C)c(=O)n2C)c1O | > 100 | > 100 | – | > 100 | > 100 | > 100 | > 100 | > 100 | > 100 | > 100 | – | – | – | – | – | – | – | – | – | –
O=C1C(c2ccccc2)=C(c2ccccc2)C(c2ccc(CCCCCCc3ccc(C4=C(c5ccccc5)C(=O)C(c5ccccc5)=C4c4ccccc4)cc3)cc2)=C1c1ccccc1 | > 100 | > 100 | > 100 | – | > 100 | > 100 | > 100 | > 100 | > 100 | > 100 | – | – | – | – | – | – | – | – | – | –
COc1ccc2c3c(c(OCCCN(C)C)nc2c1)-c1ccc(Cl)cc1C3=O | 11.1 | 22.7 | – | 19.4 | 23.1 | 17.6 | – | – | 24.1 | 24.2 | 1.51 | 7.17 µM | 4.58 | 12.5 µM | 48.3 | 4.39 | 2.01 | 7.1 | 11.4 | –
Cn1ccnc1C(=O)/C=C/c1ccc(C(=O)Nc2nc3ccccc3[nH]2)cc1 | > 25 | > 25 | – | > 25 | > 25 | > 25 | – | – | > 25 | > 25 | 2.07 | 7.73 µM | 2.38 | 3.37 µM | > 25 | 10.3 | 1.01 | 8.54 | 10.3 | –
CCOC(=O)C12CC1(C(=O)OCC)C1CCC2C1 (stereo not drawn) | > 100 | – | > 100 | > 100 | > 100 | > 100 | – | – | – | > 100 | – | – | – | – | – | – | – | – | – | > 100
Oc1ccc2ccccc2c1N=Nc1ccccc1 | > 100 | > 100 | – | > 100 | > 100 | > 100 | – | – | > 100 | > 100 | – | 15.5 µM and > 62.4 µM | – | 22.5 µM and > 100 µM | > 100 | – | – | – | – | –
CC#CC(=O)N1CCC[C@H]1c1nc(-c2ccc(C(=O)Nc3ccccn3)cc2)c2c(N)nccn12 | > 100 | > 100 | – | > 100 | > 100 | > 100 | – | – | > 100 | > 100 | 32.1 | 35 µM | 98.5 | 10.1 µM | > 100 | > 79.1 | 55.1 | 13.9 | 56.5 | –
C[C@H]1[C@@H](OCC(CO[C@H]2O[C@@H]3O[C@@]4(C)CC[C@H]5[C@H](C)CC[C@@H]([C@H]2C)[C@@]35OO4)=NOCC(=O)O)OC2O[C@@]3(C)CC[C@H]4[C@H](C)CC[C@@H]1[C@@]24OO3 (stereo partly drawn) | 11.3 | 22.2 | – | 13.3 | 15.9 | 15 | – | – | 11.4 | 18.8 | 0.0968 | 0.0982 µM | < 0.01 | < 0.01 µM | 0.331 | 0.0865 | < 0.01 | < 0.0151 | 0.205 | –
O=C(NNS(=O)(=O)c1cc(C(F)(F)F)cc(C(F)(F)F)c1)c1cnn(-c2ccc(Cl)cc2)c1C(F)(F)F | 31.7 | 43.2 | – | 36.5 | 33.2 | > 100 | – | – | 43.1 | 30.9 | 15.8 | 16 µM | 17 | 17.5 µM | 45 | 13.7 | 31.7 | 18.8 | 16.3 | –
O=c1[nH]c(-c2ccc(C(F)(F)F)cc2)nc2c1CSCC2 | > 67.4 | > 100 | – | > 100 | > 100 | > 100 | – | – | > 100 | > 100 | 5.43 | > 42.1 µM | > 71.1 | 23.7 µM | 98.1 | 32.9 | > 76.8 | > 100 | 68.7 | –
NC(CSC(c1ccccc1)(c1ccccc1)c1ccc2ccccc2c1)C(=O)O (stereo not drawn) | 24.3 | 26.3 | – | 18.1 | 26.4 | > 100 | – | – | 1.49 | 0.0512 | 3.1 | 0.136 µM | 0.172 | 0.132 µM | 18 | 0.095 | 0.2 | 0.0392 | 0.0211 | –
